Values quoted from earlier work as cited in patent publication US20120165520A1, “PROCESS FOR THE SYNTHESIS OF PRODRUGS OF OPIOIDS” (priority 2010, published 2012).

Key:
[1] = not given; remark: listed apart in the source

SMILES	oral bioavailability [%]	fraction of an oral dose converted to dihydromorphine [1]
CCC1(c2cccc(O)c2)CCCCN(C)C1 (centres unmarked) [Meptazinol, meptazinol]	< 10	
COc1ccc2c3c1O[C@H]1[C@@H](O)CC[C@H]4[C@@H](C2)N(C)CC[C@@]341 [dihydrocodeine]		less than 2%
